Earlier results as cited in PMC9337769 (Science Advances, 2022).

How the values were obtained:
PKA-C [1] = settings: substrate binding cooperativity of ligand-bound PKA-C
PKA-C [2] = settings: inhibition of PKA-C; literature value

Structure (SMILES) | K-type cooperativity (in words) (PKA-C [1]) | Ki (PKA-C [2])
O=S(=O)(NCCNCC=Cc1ccc(Br)cc1)c1cccc2cnccc12 [H89, N-[2-(p-bromocinnamylamino)ethyl]-5-isoquinoline sulfonamide] | negative K-type cooperativity | –
Nc1ncnc2c1ncn2[C@@H]1O[C@H](COP(=O)(O)OP(=O)(O)CP(=O)(O)O)[C@@H](O)[C@H]1O [adenosine 5′-(β,γ-methylene) triphosphate] | lacks K-type cooperativity | –
O=C(N[C@@H]1CNCCC[C@H]1OC(=O)c1cc(O)c(C(=O)c2c(O)cccc2C(=O)O)c(O)c1)c1ccc(O)cc1 [balanol] | – | ~4 nM
